# In patent US11464763B2, “Parasiticidal compositions comprising an isoxazoline active agent, methods and uses thereof” (BOEHRINGER INGELHEIM ANIMAL HEALTH USA INC., priority 2011, dated 2022):
# Columns and labels:
# Ixodes ricinus = assay: Spot-on efficacy against induced Ixodes ricinus tick infestations in cats (Example 10); format: in vivo; conditions: for prevention of the infestation of I. ricinus: 2.5% w/v in DMI
# Description: The efficacy of spot-on formulations comprising Cmpd. A were studied against induced infestations of Ixodes ricinus ticks in cats. Three treatment groups with six cats per group were randomly allocated: Group 1—Control, untreated; Group 2—Cmpd. A (2.5% w/v in DMI) at 0.1 ml/kg body weight (2.5 mg/kg); and Group 3—Cmpd. A (5.0% w/v in DMI) at 0.1 ml/kg body weight (5 mg/kg). Treatment was administered once on Day 0 and efficacy was assessed based on 48-hour tick (I. ricinus) counts following weekly experimental challenge from Day 7 on. […] In fact, the topical spot-on formulation offered substantial protection against I. ricinus ticks until the last day of assessment—Day 93. Due to limitations on tick availability 5 mg/kg was tested only up to Day 44 with 100% efficacy. The excellent long-lasting efficacy of the formulation of the invention against I. ricinus ticks in cats is very surprising and unexpected.
# Linognathus vituli = assay: Pour-on efficacy against Linognathus vituli (sucking lice) in cattle (Example 16); format: in vivo
# Description: The efficacy of two pour-on formulations of the invention comprising isoxazoline Compound A at doses of 2.5 mg/kg and 10 mg/kg were tested against natural and induced infestations with Linognathus vituli (sucking lice) in cattle compared with an untreated control. Four healthy head of cattle weighing between 100 to 300 kg were used in each study group. Cattle in Group 1 were untreated (control). Cattle in Group 2 were treated on Day 0 with a pour-on formulation comprising Compound A at a concentration of 2.5% (w/v) in DES at a dose of 2.5 mg/kg; and cattle in Group 3 were treated on Day 0 with a pour-on formulation comprising Compound A at a concentration of 10% (w/v) in DES at a dose of 10 mg/kg. The formulation was applied by measuring the required amount of the solution into a marked disposable syringe and applying the material evenly along the mid-line of the back of each animal from the withers to the tail head.
# Live lice (adults plus nymphs) were counted on days 2, 7, 14, 21, 28, 35, 42, 49 and 56 by counting lice on six selected sites approximately 5 cm×15 cm on the body surface of the animal by direct examination. In the absence of lice on the selected sites, a thorough body search was conducted. The total louse counts per animal were determined by summation of the live louse numbers at each site per animal. Tables 17A and 17B below show the efficacy of the two pour-on formulations against Linognathus vituli over 56 days. As the tables show, both pour-on formulations were efficacious through at least day 56 of the study with 100% efficacy observed starting day 7. Efficacy on day 2 of the study was greater than 90% in each of the study groups. The long lasting efficacy against Linognathus vituli from one topical treatment is unexpected and surprising.
smiles,measurement,setting,value
"O=C(CNC(=O)c1ccc(C2=NOC(c3cc(Cl)cc(C(F)(F)F)c3)(C(F)(F)F)C2)c2ccccc12)NCC(F)(F)F (stereo not drawn) [Compound A, 4-[5-[3-chloro-5-(trifluoromethyl)phenyl]-4,5-dihydro-5-(trifluoromethyl)-3-isoxazolyl]-N-[2-oxo-2-[(2,2,2-trifluoroethyl)amino]ethyl]-1-naphthalanecarboxamide]",efficacy against I. ricinus,"Ixodes ricinus; 5 mg/kg, up to Day 44",100%
same,prevention of the infestation of I. ricinus,"Ixodes ricinus; 2.5 mg/kg, until Day 56",completely prevented
same,prevention of the infestation of I. ricinus,"Ixodes ricinus; 2.5 mg/kg, until at least Day 77",> 90%
same,% Reduction Ticks,"Ixodes ricinus; Group 2: 2.5% w/v in DMI, 2.5 mg/kg, Day 2",23.71%
same,% Reduction Ticks,"Ixodes ricinus; Group 2: 2.5% w/v in DMI, 2.5 mg/kg, Day 9",100.00%
same,% Reduction Ticks,"Ixodes ricinus; Group 2: 2.5% w/v in DMI, 2.5 mg/kg, Day 23",99.60%
same,% Reduction Ticks,"Ixodes ricinus; Group 2: 2.5% w/v in DMI, 2.5 mg/kg, Day 30",100.00%
same,% Reduction Ticks,"Ixodes ricinus; Group 2: 2.5% w/v in DMI, 2.5 mg/kg, Day 37",99.58%
same,% Reduction Ticks,"Ixodes ricinus; Group 2: 2.5% w/v in DMI, 2.5 mg/kg, Day 44",100.00%
same,% Reduction Ticks,"Ixodes ricinus; Group 2: 2.5% w/v in DMI, 2.5 mg/kg, Day 51",100.00%
same,% Reduction Ticks,"Ixodes ricinus; Group 2: 2.5% w/v in DMI, 2.5 mg/kg, Day 58",100.00%
same,% Reduction Ticks,"Ixodes ricinus; Group 2: 2.5% w/v in DMI, 2.5 mg/kg, Day 65",99.02%
same,% Reduction Ticks,"Ixodes ricinus; Group 2: 2.5% w/v in DMI, 2.5 mg/kg, Day 72",99.21%
same,% Reduction Ticks,"Ixodes ricinus; Group 2: 2.5% w/v in DMI, 2.5 mg/kg, Day 79",95.54%
same,% Reduction Ticks,"Ixodes ricinus; Group 2: 2.5% w/v in DMI, 2.5 mg/kg, Day 86",84.92%
same,% Reduction Ticks,"Ixodes ricinus; Group 2: 2.5% w/v in DMI, 2.5 mg/kg, Day 93",76.65%
same,% Reduction Ticks,"Ixodes ricinus; Group 3: 5.0% w/v in DMI, 5 mg/kg, Day 2",70.27%
same,% Reduction Ticks,"Ixodes ricinus; Group 3: 5.0% w/v in DMI, 5 mg/kg, Day 9",100.00%
same,% Reduction Ticks,"Ixodes ricinus; Group 3: 5.0% w/v in DMI, 5 mg/kg, Day 23",100.00%
same,% Reduction Ticks,"Ixodes ricinus; Group 3: 5.0% w/v in DMI, 5 mg/kg, Day 30",100.00%
same,% Reduction Ticks,"Ixodes ricinus; Group 3: 5.0% w/v in DMI, 5 mg/kg, Day 37",100.00%
same,% Reduction Ticks,"Ixodes ricinus; Group 3: 5.0% w/v in DMI, 5 mg/kg, Day 44",100.00%
same,% Reduction,"Linognathus vituli; Group 2: pour-on 2.5% in DES, 2.5 mg/kg, Day 2",92%
same,% Reduction,"Linognathus vituli; Group 2: pour-on 2.5% in DES, 2.5 mg/kg, Day 7",100%
same,% Reduction,"Linognathus vituli; Group 2: pour-on 2.5% in DES, 2.5 mg/kg, Day 14",100%
same,% Reduction,"Linognathus vituli; Group 2: pour-on 2.5% in DES, 2.5 mg/kg, Day 21",100%
same,% Reduction,"Linognathus vituli; Group 2: pour-on 2.5% in DES, 2.5 mg/kg, Day 28",100%
same,% Reduction,"Linognathus vituli; Group 3: pour-on 10% in DES, 10 mg/kg, Day 2",98%
same,% Reduction,"Linognathus vituli; Group 3: pour-on 10% in DES, 10 mg/kg, Day 7",100%
same,% Reduction,"Linognathus vituli; Group 3: pour-on 10% in DES, 10 mg/kg, Day 14",100%
same,% Reduction,"Linognathus vituli; Group 3: pour-on 10% in DES, 10 mg/kg, Day 21",100%
same,% Reduction,"Linognathus vituli; Group 3: pour-on 10% in DES, 10 mg/kg, Day 28",100%
same,efficacy against Linognathus vituli,"Linognathus vituli; both pour-on formulations, starting day 7 through at least day 56",100%
same,efficacy against Linognathus vituli,"Linognathus vituli; each of the study groups, day 2",greater than 90%
same,% Reduction,"Linognathus vituli; live lice counts, Group 2: pour-on 2.5% (w/v) in DES, 2.5 mg/kg, Day 35",92%
same,% Reduction,"Linognathus vituli; live lice counts, Group 2: pour-on 2.5% (w/v) in DES, 2.5 mg/kg, Day 42",100%
same,% Reduction,"Linognathus vituli; live lice counts, Group 2: pour-on 2.5% (w/v) in DES, 2.5 mg/kg, Day 49",100%
same,% Reduction,"Linognathus vituli; live lice counts, Group 2: pour-on 2.5% (w/v) in DES, 2.5 mg/kg, Day 56",100%
same,% Reduction,"Linognathus vituli; live lice counts, Group 3: pour-on 10% (w/v) in DES, 10 mg/kg, Day 35",98%
same,% Reduction,"Linognathus vituli; live lice counts, Group 3: pour-on 10% (w/v) in DES, 10 mg/kg, Day 42",100%
same,% Reduction,"Linognathus vituli; live lice counts, Group 3: pour-on 10% (w/v) in DES, 10 mg/kg, Day 49",100%
same,% Reduction,"Linognathus vituli; live lice counts, Group 3: pour-on 10% (w/v) in DES, 10 mg/kg, Day 56",100%
